Measured values taken from PubChem BioAssay (NCI).
Values joined by “and” are separate entries in the source; they are usually repeats but may differ in a detail not shown here. Identical values can stand only once.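 Exposure lasted 48 hours, with cells grown in 96-well plates and compounds tested at five concentrations. GI50 is the concentration that inhibits growth by half. The concentration for full growth arrest is given as TGI.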

Key:
Experiment in all cases: DTP human tumour cell line panel, 48 h
[1] = test system: A498 renal
[2] = test system: ACHN renal
[3] = test system: HL-60(TB) leukemia
[4] = test system: IGROV1 ovarian
[5] = test system: MCF7 breast
[6] = test system: MDA-MB-231 breast
[7] = test system: SF-268 CNS
[8] = test system: SN12C renal
[9] = test system: SNB-75 CNS
[10] = test system: SR leukemia

SMILES | GI50 [1] | TGI [1] | GI50 [2] | TGI [2] | GI50 [3] | TGI [3] | GI50 [4] | TGI [4] | GI50 [5] [µM] | TGI [5] | GI50 [6] | TGI [6] | GI50 [7] | TGI [7] [µM] | GI50 [8] | TGI [8] [µM] | GI50 [9] | TGI [9] | GI50 [10] | TGI [10]
COC(=O)c1cc2c3ccccc3[nH]c2c2sccc12 | 21 µM | 50.6 µM | 13.6 µM | > 100 µM | > 100 µM | > 100 µM | 4.31 µM | > 100 µM | 27 | > 100 µM | 5.06 µM | 61.3 µM | 32.4 µM | > 100 | 21.8 µM | 61.8 | 19 µM | 70.6 µM | 12.2 µM | 56.5 µM
O=[N+]([O-])c1cc(C(F)(F)F)ccc1Sc1ccc(C(F)(F)F)cc1[N+](=O)[O-] | 7.22 µM | 30.6 µM | 49.4 µM | > 100 µM | 3.32 µM | > 100 µM | 17.1 µM | > 100 µM | 9.39 | > 100 µM | 5.1 µM | > 100 µM | 7.07 µM | > 100 | 7.7 µM | > 100 | > 100 µM | > 100 µM | 3.65 µM | > 100 µM
OCCNc1nc(Nc2ccc(Cl)c(Cl)c2)nc2ccccc12 | 1.5 µM | 13.9 µM | 4.8 µM | 18.3 µM | 8.69 µM | 33.4 µM | 5.14 µM | 20 µM | 1.96 | 14.6 µM | 1.97 µM | 5.4 µM | 6.78 µM | 20.8 | 5.37 µM | 20.7 | 4.79 µM | 18.7 µM | 2.65 µM | 9.67 µM
CCCCCCCCCCCCCCCCCCOCC(CCP(=O)(CP(=O)(O)O)Oc1ccccc1)OCCCCCCCCCCCCCCCCCC (centres undefined) | – | > 100 µM | – | > 100 µM | – | > 100 µM | – | > 100 µM | – | > 100 µM | – | > 100 µM | – | > 100 | – | > 100 | – | > 100 µM | – | > 100 µM
Cc1cc(N2CCOCC2)nc(N(CCCNc2ccnc3cc(Cl)ccc23)Cc2ccco2)n1 | 2.2 µM | 6.04 µM | 4.09 µM | 15.8 µM | 1.87 µM | 4.55 µM | 2.18 µM | 11.3 µM | 2.42 | 12.9 µM | 3.2 µM | 13.4 µM | 3.43 µM | 16.1 | 3.35 µM | 14.6 | 2.29 µM | 9.78 µM | 1.42 µM | 5.28 µM
C/C(=C\c1cc(C(F)(F)F)n(-c2ccc(N)cc2)n1)[C@@H]1C[C@@H]2O[C@]2(C)CCC[C@H](C)[C@H](O)[C@@H](C)C(=O)C(C)(C)[C@@H](O)CC(=O)O1 | 0.0438 µM | – | 0.0822 µM | > 11.1 µM | 0.0168 µM | 2.68 µM | 0.068 µM | > 11.1 µM | 0.0041 | > 11.1 µM | 0.137 µM | > 11.1 µM | 0.0502 µM | > 11.1 | 0.396 µM | > 11.1 | 0.0078 µM | 0.189 µM | 0.0225 µM | 2.18 µM
COc1cc(-c2csc(NC(=O)Nc3ccc(C(F)(F)F)cc3)n2)cc(OC)c1OC | 1.99 µM | 5.09 µM | 2.11 µM | 6.13 µM | 3.75 µM | 8.05 µM | 2.86 µM | 13.5 µM | 2.21 | 7.66 µM | 1.55 µM | 3.69 µM | 2.92 µM | 13.7 | 2.62 µM | 8.89 | 1.43 µM | 5.52 µM | 2.39 µM | 6.79 µM
O=C(N/N=C/c1ccc(O)cc1O)c1cccc(Nc2ccnc(C(F)(F)F)c2)c1 | 12.8 µM | > 51 µM | 1.25 µM | 29.6 µM | 0.472 µM | 2.98 µM | 1.28 µM | 27.7 µM | 2.2 | 15.5 µM | 1.08 µM | 51.8 µM | 0.811 µM | 30.4 | 2.01 µM | 26.1 | 11.3 µM | 52.5 µM | 0.29 µM | 6.34 µM
Cc1cc2c(C(N)=O)c(N)n(-c3c(C)ccc(O)c3C)c2nc1C | 7.5 µM | 24.3 µM | 1.84 µM | 10.5 µM | 4.4 µM | > 100 µM | 3.04 µM | 12 µM | 3.41 | > 100 µM | 2.12 µM | 13.9 µM | 9.28 µM | 52.9 | 2.48 µM | 34.5 | 1.05 µM | 8.3 µM | 2.47 µM | > 100 µM
COc1cc2nccc(Oc3ccc(NC(=O)Nc4cc(C)on4)c(Cl)c3)c2cc1OC | 0.532 µM and 1.46 µM | 2.67 µM and 4.6 µM | 3.28 µM and 3.72 µM | 22.3 µM and > 10 µM | 3.35 µM and 3.2 µM | 11.8 µM and > 10 µM | 2.51 µM and 2.85 µM | 8.36 µM and > 10 µM | 3.35 | 56.2 µM and > 10 µM | 2.18 µM and 2.42 µM | 8.73 µM and > 10 µM | 2.58 µM and 3.09 µM | > 55.3 | 2.13 µM and 2.56 µM | > 100 | 1.99 µM and 2.06 µM | 6.24 µM and > 10 µM | 2.62 µM and 3.86 µM | 34.4 µM and > 10 µM
Cc1ccc(NC(=O)CSc2nnc3n(Cc4ccccc4)c(=O)c4c(C)c(C(N)=O)sc4n23)cc1 | 13.2 µM | 63.1 µM | 19.9 µM | 51 µM | > 100 µM | > 100 µM | 37 µM | > 100 µM | > 100 | > 100 µM | 3.44 µM | 58.8 µM | 14.4 µM | 86.8 | > 100 µM | > 100 | 5.72 µM | 23.8 µM | 16.4 µM | 34.2 µM
